Assay results taken from PubChem BioAssay (NCI).
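Method: 48-hour compound exposure of cells in 96-well plates, five concentrations, linear interpolation of endpoints. TGI: total growth inhibition.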

Experiments:
Test in all cases: NCI tumour cell line growth inhibition, 48 h
[1] = test system: 786-0 renal
[2] = test system: HOP-92 NSCLC
[3] = test system: MALME-3M melanoma
[4] = test system: MDA-N
[5] = test system: NCI/ADR-RES ovarian
[6] = test system: OVCAR-4 ovarian
[7] = test system: OVCAR-5 ovarian
[8] = test system: SF-268 CNS
[9] = test system: SK-MEL-28 melanoma
[10] = test system: UACC-257 melanoma

Work on `O=c1[nH]c2cc3cccnc3c(Cl)c2nc1C(F)(F)F` yielded a TGI [1] of over 100 µM, a TGI [2] of 60.5 µM and a TGI [3] of over 100 µM. It also gave a TGI [4] of over 100 µM, a TGI [5] of over 100 µM and a TGI [6] of 83 µM. For the same compound, the TGI [7] was over 100 µM, the TGI [8] was over 100 µM and the TGI [9] was over 100 µM. For the same compound, the TGI [10] was over 100 µM.

`CC1(C)[C@@H](Cn2cnc3c(=O)[nH]c(N)nc32)CC[C@@]1(C)CO` gave a TGI [1] of over 100 µM, a TGI [2] of over 100 µM and a TGI [4] of over 100 µM. The TGI [5] was over 100 µM, the TGI [6] was over 100 µM and the TGI [7] was over 100 µM. The TGI [8] was over 100 µM, the TGI [9] was over 100 µM and the TGI [10] was over 100 µM.

With `CCOC(=O)C1=C(C)C(C(=O)OC)/C(=C/c2cccc3cccnc23)C1=O` (stereo not given) the TGI [1] was over 10 µM, the TGI [2] was over 10 µM and the TGI [3] was over 10 µM. It also gave a TGI [4] of over 10 µM, a TGI [5] of over 10 µM and a TGI [6] of over 10 µM. It also gave a TGI [7] of over 10 µM, a TGI [8] of over 10 µM and a TGI [9] of over 10 µM. For the same compound, the TGI [10] was over 10 µM.

Work on `NCCNCCCCCCNC(=O)c1cccc2cc3ccccc3nc12` yielded a TGI [1] of 2.88 µM, a TGI [2] of 9.28 µM and a TGI [3] of 7.92 µM. It also gave a TGI [4] of 7.13 µM, a TGI [5] of 38.4 µM and a TGI [6] of 4.7 µM. For the same compound, the TGI [7] was 14 µM, the TGI [8] was 9.93 µM and the TGI [9] was 12.3 µM. For the same compound, the TGI [10] was 15.2 µM.

For `CCOP(=O)(OCC)/C(=C\N1C(=O)CC(=O)NC1=S)C(=O)OC`, the TGI [1] was over 100 µM, the TGI [2] was over 100 µM and the TGI [4] was over 100 µM. For the same compound, the TGI [5] was over 100 µM, the TGI [6] was over 100 µM and the TGI [7] was over 100 µM. For the same compound, the TGI [8] was over 100 µM, the TGI [9] was over 100 µM and the TGI [10] was over 100 µM.

Compound `COC(=O)c1ccc(CCc2cc(O)ccc2O)cc1` has a TGI [1] of 18.4 µM, a TGI [2] of 26.4 µM and a TGI [3] of 22.5 µM. For the same compound, the TGI [4] was 20.5 µM, the TGI [5] was over 90.1 µM and the TGI [6] was 24.4 µM. For the same compound, the TGI [7] was 50.7 µM, the TGI [8] was over 36.6 µM and the TGI [9] was 42.2 µM. It also gave a TGI [10] of 32.8 µM.

Compound `Cc1ccc(-n2c(O)c3c(N)n[nH]c3c(C#N)c2=O)cc1` has a TGI [1] of over 100 µM, a TGI [3] of over 100 µM and a TGI [4] of over 100 µM. The TGI [5] was over 100 µM, the TGI [6] was over 100 µM and the TGI [7] was over 100 µM. The TGI [8] was over 100 µM, the TGI [9] was over 100 µM and the TGI [10] was over 100 µM.

For `c1cc(C[S+]2CCCC2)ccc1C[S+]1CCCC1`, the TGI [1] was over 100 µM, the TGI [2] was over 100 µM and the TGI [3] was over 100 µM. The TGI [4] was over 100 µM, the TGI [5] was over 100 µM and the TGI [6] was over 100 µM. The TGI [7] was over 100 µM, the TGI [8] was over 100 µM and the TGI [9] was over 100 µM. It also gave a TGI [10] of over 100 µM.

With `CC(C)[C@H]1NC(=O)[C@H]2N=C(O[C@@H]2C)[C@@H]2CCCN2C(=O)[C@H](Cc2ccccc2)NC(=O)[C@@H]2CSC(=N2)[C@@H](Cc2ccccc2)NC(=O)[C@@H]2CSC1=N2` the TGI [1] was over 100 µM, the TGI [3] was over 100 µM and the TGI [4] was over 100 µM. The TGI [5] was over 100 µM, the TGI [6] was over 100 µM and the TGI [7] was over 100 µM. For the same compound, the TGI [8] was over 100 µM, the TGI [9] was over 100 µM and the TGI [10] was over 100 µM.

In the case of `C1#Cc2ccccc2OCCOc2ccccc2C#Cc2ccccc2OCCOc2ccccc21`, the TGI [1] is reported as 28.8 µM, the TGI [3] is reported as 73 µM and the TGI [4] is reported as over 100 µM. The TGI [5] was over 100 µM, the TGI [6] was 30.6 µM and the TGI [7] was 65.2 µM. It also gave a TGI [8] of 46.3 µM, a TGI [9] of over 100 µM and a TGI [10] of over 100 µM.

In the case of `O=c1[nH]c2ccccc2nc1/C=C(\O)C(F)F`, the TGI [1] is reported as over 100 µM, the TGI [3] is reported as over 100 µM and the TGI [4] is reported as over 100 µM. The TGI [5] was over 100 µM, the TGI [6] was over 100 µM and the TGI [7] was over 100 µM. It also gave a TGI [8] of over 100 µM, a TGI [9] of over 100 µM and a TGI [10] of over 100 µM.

In the case of `N/N=C1/C(=N/O)CCc2nonc21`, the TGI [1] is reported as over 100 µM, the TGI [2] is reported as over 100 µM and the TGI [3] is reported as over 100 µM. The TGI [4] was over 100 µM, the TGI [5] was over 100 µM and the TGI [6] was over 100 µM. It also gave a TGI [7] of over 100 µM, a TGI [8] of over 100 µM and a TGI [9] of over 100 µM. For the same compound, the TGI [10] was over 100 µM.

For `N#Cc1c(N2CCCC2)ncn(Cc2ccccc2)c1=S`, the TGI [1] was over 100 µM, the TGI [2] was 99.3 µM and the TGI [3] was over 100 µM. For the same compound, the TGI [4] was over 100 µM, the TGI [5] was over 100 µM and the TGI [6] was over 100 µM. The TGI [7] was over 100 µM, the TGI [8] was over 100 µM and the TGI [9] was over 100 µM. For the same compound, the TGI [10] was over 100 µM.

`CC(=NCCN(CCN=C(C)c1c(O)cc(C)oc1=O)CCN=C(C)c1c(O)cc(C)oc1=O)c1c(O)cc(C)oc1=O` was tested, and the TGI [1] was over 100 µM, the TGI [4] was over 100 µM and the TGI [5] was over 100 µM. For the same compound, the TGI [6] was over 100 µM, the TGI [7] was over 100 µM and the TGI [8] was over 100 µM. The TGI [9] was over 100 µM and the TGI [10] was over 100 µM.

Work on `O=C1OC2(C(F)(F)F)Oc3ccccc3CN2C12CCCCC2` (stereo not given) yielded a TGI [1] of over 100 µM, a TGI [2] of 61.7 µM and a TGI [3] of 53.2 µM. It also gave a TGI [4] of over 100 µM, a TGI [5] of over 100 µM and a TGI [6] of over 100 µM. The TGI [7] was over 100 µM, the TGI [8] was over 100 µM and the TGI [9] was over 100 µM. The TGI [10] was 71.4 µM.

In the case of `S=C1C(=Nc2ccccc2)N(c2ccccc2)/C(=N\c2ccccn2)N1c1ccccc1`, the TGI [1] is reported as 27.6 µM, the TGI [2] is reported as 25.7 µM and the TGI [3] is reported as 30.6 µM. It also gave a TGI [4] of 18.5 µM, a TGI [5] of 33.7 µM and a TGI [6] of 29.5 µM. It also gave a TGI [7] of 29.9 µM, a TGI [8] of 31.4 µM and a TGI [9] of 30.5 µM. For the same compound, the TGI [10] was 27.3 µM.

`Cc1cc(N=Cc2c(CO)cnc(C)c2O)c(N=Cc2c(CO)cnc(C)c2O)cc1C.[Zn]` was tested, and the TGI [1] was over 100 µM, the TGI [2] was over 100 µM and the TGI [4] was over 100 µM. The TGI [5] was over 100 µM, the TGI [6] was over 100 µM and the TGI [7] was over 100 µM. It also gave a TGI [8] of over 100 µM, a TGI [9] of over 100 µM and a TGI [10] of over 100 µM.

`O=c1c2ccccc2n2nnc3ccc(NCCCNCCNCCCNc4ccc5nnn6c7ccccc7c(=O)c4c56)c1c32` showed a TGI [1] of 21.3 µM, a TGI [2] of over 50 µM and a TGI [3] of over 50 µM. For the same compound, the TGI [4] was over 50 µM, the TGI [5] was over 25.5 µM and the TGI [6] was 21 µM. It also gave a TGI [7] of 18.1 µM, a TGI [8] of over 26.6 µM and a TGI [9] of over 39.3 µM. The TGI [10] was over 50 µM.

For `CCOC(=O)/C(C#N)=C/c1ccc(CO)o1`, the TGI [1] was over 100 µM, the TGI [3] was over 100 µM and the TGI [4] was over 100 µM. For the same compound, the TGI [5] was over 100 µM, the TGI [6] was over 100 µM and the TGI [7] was over 100 µM. For the same compound, the TGI [8] was over 100 µM, the TGI [9] was over 100 µM and the TGI [10] was over 100 µM.

With `N#CC(C#N)=Cc1c(O)ccc2ccccc12` the TGI [1] was 33 µM, the TGI [2] was 23.4 µM and the TGI [3] was 39.8 µM. It also gave a TGI [4] of 30.5 µM, a TGI [5] of 64.7 µM and a TGI [6] of 43.6 µM. It also gave a TGI [7] of 31.7 µM, a TGI [8] of 33.1 µM and a TGI [9] of 28.9 µM. It also gave a TGI [10] of 32.6 µM.

In the case of `COc1ccc(/C=C2\CC3C4CC=C5C[C@@H](O)CC[C@]5(C)C4CC[C@]3(C)\C2=N\O)cc1OC` (stereo not given in full), the TGI [1] is reported as over 100 µM, the TGI [2] is reported as over 100 µM and the TGI [3] is reported as over 100 µM. It also gave a TGI [4] of over 100 µM, a TGI [5] of over 100 µM and a TGI [6] of over 100 µM. For the same compound, the TGI [7] was over 100 µM, the TGI [8] was over 100 µM and the TGI [9] was over 100 µM. It also gave a TGI [10] of over 100 µM.
